In brackets after ≈: the same amount, converted by molar mass. Where two headings read alike, the source gives them in different places. Residues, ends and D or L forms follow the SMILES beside them.
How the values were obtained:
[1] = system: A. baumannii; experiment: microbe, parasite or virus in culture; conditions: for MIC: Acinetobacter baumannii, mode of 6 replicates
Summary of the method: (§1)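 MICs were scored by eye after 18-20 h static incubation at 37 °C, with bacteria at 5 × 10^5 CFU mL^−1 in MHB. Peptides were serially diluted 2-fold over 12 points, top 128 or 64 μg mL^−1. CAMHB (CLSI) and 1% agarose-MHB variants were also run, at least six replicates.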

[2] = system: E. coli; experiment: microbe, parasite or virus in culture; conditions: for MIC: Escherichia coli
Summary of the method: as §1

[3] = system: K. pneumoniae; experiment: microbe, parasite or virus in culture; conditions: for MIC: Klebsiella pneumoniae, mode of 6 replicates
Summary of the method: as §1

[4] = system: P. aeruginosa; experiment: microbe, parasite or virus in culture; conditions: for MIC: Pseudomonas aeruginosa, mode of 6 replicates
Summary of the method: as §1

[5] = system: S. enterica Typhi; experiment: microbe, parasite or virus in culture; conditions: for BMD MIC: Typhi
Summary of the method: as §1

[6] = system: E. coli; parameters: method as in Hasman H, et al. Euro. Surveill. (2015) 20:49; conditions: E. coli ESBL20150072, mcr-1 pos; ESBL; CAMHB; comparator antibiotics; ref Hasman H, et al. Euro. Surveill. (2015) 20:49; cited from earlier work
[7] = system: C. albicans; experiment: microbe, parasite or virus in culture
[8] = system: C. neoformans; experiment: microbe, parasite or virus in culture
[9] = system: L. monocytogenes; experiment: microbe, parasite or virus in culture
Summary of the method: as §1

[10] = system: E. coli ATCC 25922; experiment: microbe, parasite or virus in culture; format: cell-based, Escherichia coli; conditions: ATCC 25922
Experimental: Assays were performed in Mueller Hinton broth (MHB; BD, Cat. No. 211443) for bacteria, and yeast extract-peptone dextrose (YPD; Sigma-Aldrich, Y1500) for yeast. The concentrations of the peptides and comparator antibiotics/antifungals in the assay wells ranged from either 128 or 64 μg mL^−1, to 0.06 or 0.03 μg mL^−1 as a 12-point dose response plated as a 2-fold dilution series across the wells of the plate in duplicate for each independent biological replicate, using a final cell density of 5 × 10^5 CFU mL^−1 and 2.5 × 10^3 CFU mL^−1 for bacteria and yeast respectively. Final assay volumes were 100 μL per well with MICs determined visually following 18-20 h incubation at 37 °C for bacteria, 24 h incubation at 35 °C for Candida albicans, and 24 h incubation at 35 °C with resazurin addition (0.006%; Sigma-Aldrich, Cat # R7017) for a further 3 h for Cryptococcus neoformans, without shaking. Additional bacterial and yeast susceptibility assays were performed in Cation-Adjusted Mueller Hinton Broth (CAMHB; BD, Cat No. 212322) and Roswell Park Memorial Institute (RPMI) 1640 culture medium (Life Technologies Australia, Cat No. 21870092), respectively, as recommended by CLSI guidelines (M07 11th ed[36] and M27 4th ed[37]). […] However, for yeast it was determined that the YPD media was more reliable and robust between repeats and therefore MICs in this media are reported. […] Agarose MICs were determined in MHB with 1% agarose (Bioline molecular grade; Cat no: BIO-41025; high purity, high gel strength). All experiments were performed a minimum of six replicates (n ≥ 6).

[11] = in vitro; conditions: human
Experimental: (§2) HEK-293 human embryonic kidney cells (ATCC CRL-1573), HepG2 liver hepatocellular carcinoma cells (ATCC HB-8065), and HK-2 human kidney proximal tubule cells (ATCC CRL-2190) cell lines were purchased from ATCC. Cytotoxicity of arenicin-3 variants was determined using the Alamar Blue (resazurin; Sigma-Aldrich, Cat # R7017), with 1% FBS for HK-2 and 10% FBS for HEK-293, and HepG2[40]. Cells were seeded as 2000 cells per well in black wall clear bottom 384-well plates (Corning®, Costar®, Cat # 3712). The cells were incubated for 24 h at 37 °C, 5% CO2. Then peptides were added into each cell containing well. After 24 h incubation, 5 μM resazurin were added per well and incubated at 37 °C for 2 h. Then the fluorescence intensity (FI) was read using a Polarstar® Omega plate reader with excitation/emission 560/590 and CC50 values were determined using Prism 8 following curve fitting and applying the following equation: Percentageviability = (FITEST-FINegative/FIUNTREATED-FINegative)×100.
(§3) Hemolytic activity was measured against isolated human erythrocytes from anonymously donated fresh human blood. Isolated erythrocytes were adjusted to 1 × 10^9 blood cells mL^−1 in phosphate-buffered saline (PBS, pH 7.4), added to the wells of NUNC polypropylene round-bottom 96-well plates (Sigma-Aldrich, Cat # P6866) then up to 300 μg mL^−1 of compound was added per well and incubated for 3 h at 37 °C. Following incubation, samples were centrifuged at 3000 rpm for 20 min, and the supernatants, 100 μL, were carefully collected for measurement. The degree of hemolysis in the samples was determined by measurement of the absorption of the supernatants at 540 nm using the Polarstar-Omega plate reader. 1% Triton-X100 was used as positive control for inducing 100% hemolysis. HC10 and HC50 values were determined using Prism 8 following curve fitting. The use of human blood (sourced from the Australian Red Cross Blood Service) for hemolysis assays was approved by the University of Queensland Institutional Human Research Ethics Committee, Approval Number 2014000031. All in vitro toxicity assays were performed for two independent biological replicates as an 8-point dose response of 3-fold dilution series in triplicate with the highest test concentration of 300 μg mL^−1.

[12] = system: HEK-293 human embryonic kidney cells; experiment: in vitro
Experimental: as §2, §3

[13] = system: HK-2 human kidney proximal tubule cells; experiment: in vitro
Experimental: as §2, §3

[14] = system: HepG2 liver hepatocellular carcinoma cells; experiment: in vitro
Experimental: as §2, §3

[15] = system: human erythrocytes (HRBC); format: cell-based; conditions: for Heamolysis HC10: red cells of human, 3 h

Compound: CO/N=C(\C(=O)N[C@@H]1C(=O)N2C(C(=O)[O-])=C(C[N+]3(C)CCCC3)CS[C@H]12)c1csc(N)n1 [Cefepime, reference compound]
- MIC ([1]; ATCC19636, read-out: BMD MIC, A. baumannii ATCC 19636 type strain, CAMHB): 8 µg/mL (≈ 16.6 µM)
- MIC ([1]; read-out: BMD MIC, A. baumannii Greece CI, XDR, PmxR, MHB): > 64 µg/mL
- MIC ([2]; ATCC25922, read-out: BMD MIC, E. coli ATCC 25922 FDA control strain, CAMHB, mode of 6 replicates): ≤ 0.5 µg/mL
- MIC ([2]; ATCC700926 / MG1655, read-out: BMD MIC): ≤ 0.5 µg/mL
- MIC ([2]; ATCC700928, read-out: BMD MIC, E. coli ATCC 700928 CFT073 UPEC, CAMHB, mode of 6 replicates): ≤ 0.5 µg/mL
- MIC ([2]; read-out: BMD MIC): 8 µg/mL (≈ 16.6 µM)
- MIC ([3]; ATCC13883, read-out: BMD MIC, K. pneumoniae ATCC 13883 type strain (polymyxin/colistin heteroresistant), MHB): 1 µg/mL (≈ 2.08 µM)
- MIC ([3]; ATCC700603, read-out: BMD MIC, K. pneumoniae ATCC 700603 (K6), MDR, OXA-2/SHV-18, CAMHB): 0.5 µg/mL (≈ 1.04 µM)
- MIC ([3]; BAA2146, read-out: BMD MIC, K. pneumoniae BAA-2146, MDR, ESBL, NDM-1 pos, MHB): > 64 µg/mL
- MIC ([3]; read-out: BMD MIC, K. pneumoniae Greece CI 8_GR_13, XDR, KPC-2, PmxR, MHB): > 64 µg/mL
- MIC ([4]; ATCC27853, read-out: BMD MIC, P. aeruginosa ATCC 27853 control strain, CAMHB): ≤ 0.5 µg/mL
- MIC ([4]; read-out: BMD MIC, P. aeruginosa FADDI-070, MDR, PmxR, MHB/CAMHB): > 64 µg/mL
- MIC ([5]; Salmonella enterica, ATCC14028 / TYPHI, read-out: BMD MIC): ≤ 0.5 µg/mL
- BMD MIC [6]: >2 µg/mL

Compound: CC(C)[C@@H]1NC(=O)CNC(=O)[C@H](CC(N)=O)NC(=O)[C@H](CCCNC(=N)N)NC(=O)[C@H](CCCNC(=N)N)NC(=O)[C@H](C(C)C)NC(=O)[C@@H]2CSSC[C@H](NC(=O)[C@H](C(C)C)NC(=O)[C@H](CCCNC(=N)N)NC1=O)C(=O)N[C@@H](Cc1c[nH]cn1)C(=O)N[C@@H](CCCNC(=N)N)C(=O)N[C@@H](CCCNC(=N)N)C(=O)N[C@H](C(=O)N[C@@H](CC(N)=O)C(=O)O)CSSC[C@H](NC(=O)[C@H](Cc1ccccc1)NC(=O)CN)C(=O)N[C@@H](Cc1c[nH]c3ccccc13)C(=O)N[C@@H](CC(N)=O)C(=O)N[C@@H](C(C)C)C(=O)N2 [NZ17143] (HELM PEPTIDE1{G.F.C.W.N.V.C.V.R.R.N.G.V.R.V.C.H.R.R.C.N}$PEPTIDE1,PEPTIDE1,3:R3-20:R3|PEPTIDE1,PEPTIDE1,7:R3-16:R3$$$V2.0)
- BMD MIC [1]: 2 µg/mL
- BMD MIC [7]: >32 µg/mL
- BMD MIC ([7]; 24 h): 32 µg/mL
- BMD MIC [8]: 4 µg/mL
- MIC against ESBL producing E. coli DSA 443 [2]: 0.5 µg/mL (≈ 0.198 µM)
- BMD MIC [3]: 1 µg/mL
- BMD MIC [9]: 8 µg/mL
- BMD MIC [4]: 1 µg/mL
- BMD MIC [5]: 0.5 µg/mL
- MIC, MHB [10]: 0.25 µg/mL (≈ 0.0988 µM)
- CC50 at 24 h ([11]; HEK-293 cells): > 300 µg/mL
- CC50 at 24 h ([11]; HK-2 cells): > 250 µg/mL
- CC50 at 24 h ([11]; HepG2 cells): > 300 µg/mL
- CC50 HEK293 [12]: >300 µg/mL
- CC50 HEK293, Mean [12]: >300 µg/mL
- CC50 HK2 [13]: >253 µg/mL
- CC50 HK2, Mean [13]: >250 µg/mL
- CC50 HepG2 [14]: >300 µg/mL
- CC50 HepG2, Mean [14]: >300 µg/mL
- Heamolysis HC10, Mean [15]: >300 µg/mL
- Heamolysis HC10 [15]: >300 µg/mL

Compound: CC[C@H](C)[C@@H]1NC(=O)[C@H](CCCNC(=N)N)NC(=O)[C@H](C(C)C)NC(=O)CNC(=O)[C@H](CC(N)=O)NC(=O)[C@H](CCCNC(=N)N)NC(=O)[C@H](Cc2ccc(O)cc2)NC(=O)[C@H](C(C)C)NC(=O)[C@@H]2CSSC[C@H](NC1=O)C(=O)N[C@@H](Cc1c[nH]cn1)C(=O)N[C@@H](CCCNC(=N)N)C(=O)N[C@@H](CCCNC(=N)N)C(=O)N[C@H](C(=O)N[C@@H](CC(N)=O)C(=O)O)CSSC[C@H](NC(=O)[C@H](Cc1ccccc1)NC(=O)CN)C(=O)N[C@@H](Cc1c[nH]c3ccccc13)C(=O)N[C@@H](CC(N)=O)C(=O)N[C@@H](C(C)C)C(=O)N2 [NZ17211] (HELM PEPTIDE1{G.F.C.W.N.V.C.V.Y.R.N.G.V.R.I.C.H.R.R.C.N}$PEPTIDE1,PEPTIDE1,3:R3-20:R3|PEPTIDE1,PEPTIDE1,7:R3-16:R3$$$V2.0)
- BMD MIC [1]: 4 µg/mL
- BMD MIC [7]: >32 µg/mL
- BMD MIC ([7]; 24 h): 64 µg/mL
- BMD MIC [8]: 4 µg/mL
- MIC against ESBL producing E. coli DSA 443 [2]: 2.0 µg/mL (≈ 0.784 µM)
- BMD MIC [3]: 2 µg/mL
- BMD MIC [9]: 16 µg/mL
- BMD MIC [4]: 2 µg/mL
- BMD MIC [5]: 1 µg/mL
- MIC, MHB [10]: 0.5 µg/mL (≈ 0.196 µM)
- CC50 at 24 h ([11]; HEK-293 cells): > 300 µg/mL
- CC50 at 24 h ([11]; HK-2 cells): > 250 µg/mL
- CC50 at 24 h ([11]; HepG2 cells): > 300 µg/mL
- CC50 HEK293 [12]: >300 µg/mL
- CC50 HEK293, Mean [12]: >300 µg/mL
- CC50 HK2 [13]: >255 µg/mL
- CC50 HK2, Mean [13]: >250 µg/mL
- CC50 HepG2 [14]: >300 µg/mL
- CC50 HepG2, Mean [14]: >300 µg/mL
- Heamolysis HC10, Mean [15]: >300 µg/mL
- Heamolysis HC10 [15]: >300 µg/mL
